In ChEMBL document CHEMBL4330110, “Discovery of an isocoumarin analogue that modulates neuronal functions via neurotrophin receptor TrkB” (Bioorg Med Chem Lett, 2019):
pEC50: −log10 of the molar value. Activity calls are given as the source filed them. No cut-off for these calls is given here.

Legend:
[1] = target: T1, BDNF/NT-3 growth factors receptor (Homo sapiens, UniProt Q16620); test: Agonist activity at EGFP-fused TrkB receptor (unknown origin) expressed in HEK293T cells assessed as increase in TrkB phosphorylation at Y705 residue at 1 uM after 10 to 15 mins by Western blot analysis; assay type: cell-based
Target sequence in this assay (Q16620 32-822 limits assumed): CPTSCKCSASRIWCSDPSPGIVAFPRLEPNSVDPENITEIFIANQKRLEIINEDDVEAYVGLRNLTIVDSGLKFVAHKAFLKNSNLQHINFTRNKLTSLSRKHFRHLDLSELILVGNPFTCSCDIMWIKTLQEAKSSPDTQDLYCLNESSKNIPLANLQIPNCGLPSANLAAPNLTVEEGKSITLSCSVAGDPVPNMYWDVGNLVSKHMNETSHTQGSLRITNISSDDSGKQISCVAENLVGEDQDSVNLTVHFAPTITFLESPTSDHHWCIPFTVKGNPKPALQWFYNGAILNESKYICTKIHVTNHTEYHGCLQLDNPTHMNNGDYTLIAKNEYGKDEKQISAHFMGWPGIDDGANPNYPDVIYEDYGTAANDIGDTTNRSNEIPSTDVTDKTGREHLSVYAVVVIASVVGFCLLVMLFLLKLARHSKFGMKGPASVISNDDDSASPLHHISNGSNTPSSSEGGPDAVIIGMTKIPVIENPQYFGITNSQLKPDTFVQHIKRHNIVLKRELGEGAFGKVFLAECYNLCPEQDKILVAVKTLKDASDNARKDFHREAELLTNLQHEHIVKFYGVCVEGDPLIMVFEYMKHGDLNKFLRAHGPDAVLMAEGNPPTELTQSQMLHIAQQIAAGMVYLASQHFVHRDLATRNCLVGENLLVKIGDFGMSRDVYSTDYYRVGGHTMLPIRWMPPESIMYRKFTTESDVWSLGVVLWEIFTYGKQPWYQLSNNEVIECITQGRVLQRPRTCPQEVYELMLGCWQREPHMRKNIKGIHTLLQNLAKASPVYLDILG

[2] = target: T2, High affinity nerve growth factor receptor (Homo sapiens, UniProt P04629); test: Agonist activity at RFP-fused TrkA receptor (unknown origin) expressed in HEK293T cells after 6 hrs by luciferase reporter gene assay; assay type: cell-based
Target sequence in this assay (P04629 whole entry, the tested form may be a part): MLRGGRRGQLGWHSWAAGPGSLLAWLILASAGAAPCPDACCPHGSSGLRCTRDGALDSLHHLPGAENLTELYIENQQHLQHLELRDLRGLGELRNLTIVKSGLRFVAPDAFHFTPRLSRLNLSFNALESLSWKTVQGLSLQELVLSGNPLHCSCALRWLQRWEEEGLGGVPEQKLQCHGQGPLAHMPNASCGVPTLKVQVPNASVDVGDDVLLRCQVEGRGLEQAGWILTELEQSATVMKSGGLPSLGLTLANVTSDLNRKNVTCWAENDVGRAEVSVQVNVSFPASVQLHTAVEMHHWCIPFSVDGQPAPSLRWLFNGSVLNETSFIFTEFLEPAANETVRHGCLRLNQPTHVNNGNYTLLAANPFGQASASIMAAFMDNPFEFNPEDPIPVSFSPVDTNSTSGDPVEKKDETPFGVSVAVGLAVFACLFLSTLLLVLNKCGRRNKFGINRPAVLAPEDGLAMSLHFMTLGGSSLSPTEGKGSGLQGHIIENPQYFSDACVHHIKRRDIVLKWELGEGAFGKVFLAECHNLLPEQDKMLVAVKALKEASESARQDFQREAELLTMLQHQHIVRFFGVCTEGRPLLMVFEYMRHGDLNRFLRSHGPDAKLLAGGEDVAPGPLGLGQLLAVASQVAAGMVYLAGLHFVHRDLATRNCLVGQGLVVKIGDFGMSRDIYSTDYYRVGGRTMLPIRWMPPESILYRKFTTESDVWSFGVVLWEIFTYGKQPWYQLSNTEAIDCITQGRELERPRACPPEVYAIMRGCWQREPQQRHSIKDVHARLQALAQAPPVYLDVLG

[3] = target: BDNF/NT-3 growth factors receptor (Mus musculus) (UniProt P15209); test: Agonist activity at TrkB receptor in Swiss mouse primary cortical neurons assessed as increase in MAP2 expression after 72 hrs by Western blot analysis
[4] = target: BDNF/NT-3 growth factors receptor (Mus musculus) (UniProt P15209); test: Agonist activity at TrkB receptor in Swiss mouse primary cortical neurons assessed as increase in TrkB phosphorylation at Y705 residue after 15 mins by Western blot analysis
[5] = target: T1, BDNF/NT-3 growth factors receptor; test: Agonist activity at EGFP-fused TrkB receptor (unknown origin) expressed in HEK293T cells assessed as increase in TrkB phosphorylation at Y705 residue after 10 to 15 mins by Western blot analysis; assay type: cell-based
Target sequence in this assay (Q16620 32-822 limits assumed): as the sequence (Q16620 32-822 limits assumed) above

[6] = target: T1, BDNF/NT-3 growth factors receptor; test: Agonist activity at EGFP-fused TrkB receptor (unknown origin) expressed in HEK293T cells assessed as increase in ERK1/2 phosphorylation after 15 mins by Western blot analysis; assay type: cell-based
Target sequence in this assay (Q16620 32-822 limits assumed): as above

[7] = target: T1, BDNF/NT-3 growth factors receptor; test: Agonist activity at EGFP-fused TrkB receptor (unknown origin) expressed in HEK293T cells after 6 hrs by luciferase reporter gene assay; assay type: cell-based
Target sequence in this assay (Q16620 whole entry, the tested form may be a part): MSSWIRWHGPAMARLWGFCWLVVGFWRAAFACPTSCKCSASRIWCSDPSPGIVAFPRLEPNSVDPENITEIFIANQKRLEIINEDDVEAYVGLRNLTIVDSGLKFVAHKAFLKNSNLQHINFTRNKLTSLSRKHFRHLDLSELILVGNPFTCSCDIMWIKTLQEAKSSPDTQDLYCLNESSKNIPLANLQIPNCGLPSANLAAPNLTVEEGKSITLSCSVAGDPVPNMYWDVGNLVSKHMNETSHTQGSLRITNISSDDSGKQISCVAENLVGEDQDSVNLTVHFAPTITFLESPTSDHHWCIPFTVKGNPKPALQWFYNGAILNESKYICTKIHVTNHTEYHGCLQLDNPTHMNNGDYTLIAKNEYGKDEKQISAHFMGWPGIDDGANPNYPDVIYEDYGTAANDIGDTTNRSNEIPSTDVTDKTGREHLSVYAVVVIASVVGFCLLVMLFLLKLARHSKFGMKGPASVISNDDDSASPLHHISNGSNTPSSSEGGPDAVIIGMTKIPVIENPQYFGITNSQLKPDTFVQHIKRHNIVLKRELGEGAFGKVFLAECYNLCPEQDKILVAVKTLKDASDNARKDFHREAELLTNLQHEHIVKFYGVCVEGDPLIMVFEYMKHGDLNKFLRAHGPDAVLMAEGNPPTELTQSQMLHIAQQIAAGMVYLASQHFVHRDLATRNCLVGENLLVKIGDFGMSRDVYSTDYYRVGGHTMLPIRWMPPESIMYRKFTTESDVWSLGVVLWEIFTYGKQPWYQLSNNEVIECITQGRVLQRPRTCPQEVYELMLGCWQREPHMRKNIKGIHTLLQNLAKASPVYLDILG

[8] = target: T2, High affinity nerve growth factor receptor; test: Agonist activity at RFP-fused TrkA receptor (unknown origin) expressed in HEK293T cells assessed as increase in TrkA phosphorylation at Y490 residue at 1 uM after 10 to 15 mins by Western blot analysis; assay type: cell-based
Target sequence in this assay (P04629 33-796 limits assumed): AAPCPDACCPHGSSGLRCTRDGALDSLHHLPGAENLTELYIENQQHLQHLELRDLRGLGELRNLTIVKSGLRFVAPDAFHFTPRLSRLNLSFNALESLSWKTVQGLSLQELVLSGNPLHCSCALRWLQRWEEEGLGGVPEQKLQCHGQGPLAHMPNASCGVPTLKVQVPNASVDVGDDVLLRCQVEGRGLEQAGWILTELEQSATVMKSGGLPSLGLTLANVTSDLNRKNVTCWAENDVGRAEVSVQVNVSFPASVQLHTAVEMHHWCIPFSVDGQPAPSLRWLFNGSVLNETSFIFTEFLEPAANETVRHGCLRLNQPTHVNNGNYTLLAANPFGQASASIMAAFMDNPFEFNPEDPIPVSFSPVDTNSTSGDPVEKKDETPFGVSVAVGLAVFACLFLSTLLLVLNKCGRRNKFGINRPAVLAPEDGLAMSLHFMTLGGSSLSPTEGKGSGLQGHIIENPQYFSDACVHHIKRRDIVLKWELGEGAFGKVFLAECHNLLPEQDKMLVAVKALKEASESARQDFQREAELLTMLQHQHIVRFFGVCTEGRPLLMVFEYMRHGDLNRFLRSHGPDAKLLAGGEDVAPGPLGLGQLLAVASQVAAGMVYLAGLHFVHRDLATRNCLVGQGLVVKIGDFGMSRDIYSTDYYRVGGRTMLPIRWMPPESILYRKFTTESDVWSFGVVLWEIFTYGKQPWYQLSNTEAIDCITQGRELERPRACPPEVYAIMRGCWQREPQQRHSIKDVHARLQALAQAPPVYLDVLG

[9] = target: Luciferin 4-monooxygenase (Photinus pyralis) (UniProt P08659); test: Activation of firefly luciferase activity expressed in HEK293T cells after 6 hrs by luminescence assay; assay type: cell-based
Homo sapiens = species on record: Homo sapiens; test: Selectivity ratio of EC50 for RFP-fused TrkA receptor (unknown origin) expressed in HEK293T cells to EC50 for […] receptor (unknown origin) expressed in HEK293T cells; assay type: cell-based
[10] = target: BDNF/NT-3 growth factors receptor (Mus musculus) (UniProt P15209); test: Agonist activity at TrkB receptor in Swiss mouse primary cortical neurons assessed as increase in PSD95 expression after 72 hrs by Western blot analysis
[11] = target: BDNF/NT-3 growth factors receptor (Mus musculus) (UniProt P15209); test: Agonist activity at TrkB receptor in Swiss mouse primary cortical neurons transfected with AAV2 Tdtomato assessed as increase in dendritic arborization at 100 nM after 72 hrs by confocal microscopic analysis

Sequence of BDNF/NT-3 growth factors receptor (Mus musculus) (P15209 whole entry, the tested form may be a part): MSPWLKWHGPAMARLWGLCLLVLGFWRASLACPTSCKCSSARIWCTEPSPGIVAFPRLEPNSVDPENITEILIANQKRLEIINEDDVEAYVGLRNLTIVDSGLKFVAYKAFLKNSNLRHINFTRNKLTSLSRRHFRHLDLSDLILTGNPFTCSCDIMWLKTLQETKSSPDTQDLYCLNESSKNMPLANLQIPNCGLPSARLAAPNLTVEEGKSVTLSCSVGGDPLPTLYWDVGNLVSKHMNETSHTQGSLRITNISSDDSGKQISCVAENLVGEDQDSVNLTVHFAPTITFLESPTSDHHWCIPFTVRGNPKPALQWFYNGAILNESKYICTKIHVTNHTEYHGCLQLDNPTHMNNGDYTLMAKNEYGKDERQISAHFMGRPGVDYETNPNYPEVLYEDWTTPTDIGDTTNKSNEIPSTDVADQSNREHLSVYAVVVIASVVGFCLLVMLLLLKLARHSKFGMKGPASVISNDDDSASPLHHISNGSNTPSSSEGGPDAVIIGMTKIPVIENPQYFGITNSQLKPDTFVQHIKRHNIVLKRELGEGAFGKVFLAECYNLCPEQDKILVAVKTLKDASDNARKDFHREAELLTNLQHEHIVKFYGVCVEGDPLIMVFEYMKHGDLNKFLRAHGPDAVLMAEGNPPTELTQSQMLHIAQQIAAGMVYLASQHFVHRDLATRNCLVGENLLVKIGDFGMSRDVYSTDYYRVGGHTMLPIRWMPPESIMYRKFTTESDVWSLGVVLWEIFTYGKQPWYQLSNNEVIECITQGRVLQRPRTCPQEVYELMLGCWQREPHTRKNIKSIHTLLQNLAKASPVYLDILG
Sequence of Luciferin 4-monooxygenase (Photinus pyralis) (P08659 whole entry, the tested form may be a part): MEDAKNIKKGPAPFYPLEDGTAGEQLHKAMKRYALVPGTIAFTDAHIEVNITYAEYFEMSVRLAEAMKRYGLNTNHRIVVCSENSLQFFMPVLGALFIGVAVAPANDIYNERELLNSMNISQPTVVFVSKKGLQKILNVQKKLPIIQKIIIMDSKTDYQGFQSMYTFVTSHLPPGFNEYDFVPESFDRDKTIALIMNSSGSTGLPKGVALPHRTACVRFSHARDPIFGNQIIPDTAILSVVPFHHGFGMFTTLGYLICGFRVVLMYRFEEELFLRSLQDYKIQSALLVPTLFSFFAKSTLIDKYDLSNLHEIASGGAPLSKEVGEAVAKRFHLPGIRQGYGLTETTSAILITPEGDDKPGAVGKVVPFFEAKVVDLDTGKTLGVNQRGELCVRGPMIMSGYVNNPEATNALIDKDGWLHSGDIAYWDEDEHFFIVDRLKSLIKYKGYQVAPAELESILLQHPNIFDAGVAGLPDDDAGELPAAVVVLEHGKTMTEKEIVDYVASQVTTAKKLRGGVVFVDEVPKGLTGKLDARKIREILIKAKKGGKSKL

SMILES	Activity [1]	pEC50 [2]	Activity [3]	Activity [4]	Activity [5]	Activity [6]	pEC50 [7]	Activity [8]	Activity [9]	Ratio EC50 (Homo sapiens)	Activity [10]	Activity [11]
O=c1oc(-c2ccc3c(c2)OCO3)cc2cccc(O)c12	Active	–	–	–	–	–	–	–	–	–	–	–
COc1ccc(-c2cc3cccc(O)c3c(=O)o2)cc1	Active	6.18	Dose-dependent effect	Dose-dependent effect	Dose-dependent effect	Dose-dependent effect	7.06	Active	inactive	> 7	inactive	Active
